Measured values as given in the NIST ThermoML archive (doi:10.1016/j.jct.2004.07.018).
± gives the expanded uncertainty stated by the source.

Assay: mn = molality of the nth substance listed, in mol/kg
Settings: 101.3 kPa, Liquid, buoyancy

CCOS(=O)(=O)[O-].CCn1cc[n+](C)c1 [1-ethyl-3-methylimidazolium ethyl sulfate] + O
mass density [kg/m3]
Settings | 308.15 K | 313.15 K | 318.15 K | 323.15 K | 328.15 K | 333.15 K
m1 = 0.2224 | 1002.9 ± 5.7 | 1001.1 ± 5.7 | 999 ± 5.6 | 996.6 ± 5.6 | 994.1 ± 5.6 | 991.4 ± 5.6
m1 = 0.4472 | 1011.6 ± 5.7 | 1009.6 ± 5.7 | 1007.5 ± 5.7 | 1005.1 ± 5.7 | 1002.6 ± 5.7 | 999.8 ± 5.7
m1 = 0.6739 | 1019.6 ± 5.8 | 1017.9 ± 5.8 | 1015.6 ± 5.7 | 1013 ± 5.7 | 1010.6 ± 5.7 | 1007.7 ± 5.7
m1 = 0.903 | 1027.7 ± 5.8 | 1025.6 ± 5.8 | 1023.1 ± 5.8 | 1020.5 ± 5.8 | 1018.1 ± 5.8 | 1015.4 ± 5.7
m1 = 1.132 | 1034.6 ± 5.8 | 1032.8 ± 5.8 | 1030.4 ± 5.8 | 1027.9 ± 5.8 | 1025.3 ± 5.8 | 1022.7 ± 5.8
m1 = 1.364 | 1041.5 ± 5.9 | 1039.7 ± 5.9 | 1037.3 ± 5.9 | 1034.7 ± 5.8 | 1032.1 ± 5.8 | 1029.7 ± 5.8
m1 = 1.598 | 1048.3 ± 5.9 | 1046.4 ± 5.9 | 1043.9 ± 5.9 | 1041.3 ± 5.9 | 1038.7 ± 5.9 | 1036.4 ± 5.9
m1 = 1.835 | 1054.6 ± 6 | 1052.8 ± 5.9 | 1050.2 ± 5.9 | 1047.7 ± 5.9 | 1045.1 ± 5.9 | 1042.7 ± 5.9
m1 = 2.072 | 1060.5 ± 6 | 1058.8 ± 6 | 1056.1 ± 6 | 1053.6 ± 6 | 1051.1 ± 5.9 | 1048.9 ± 5.9
m1 = 2.313 | 1066.2 ± 6 | 1064.4 ± 6 | 1061.7 ± 6 | 1059.4 ± 6 | 1056.8 ± 6 | 1054.9 ± 6
m1 = 2.554 | 1071.7 ± 6.1 | 1069.8 ± 6 | 1067.1 ± 6 | 1064.8 ± 6 | 1062.4 ± 6 | 1060.4 ± 6
m1 = 2.798 | 1076.8 ± 6.1 | 1074.9 ± 6.1 | 1072.3 ± 6.1 | 1070 ± 6 | 1067.4 ± 6 | 1065.8 ± 6
m1 = 3.044 | 1081.8 ± 6.1 | 1079.8 ± 6.1 | 1077.1 ± 6.1 | 1074.9 ± 6.1 | 1072.7 ± 6.1 | 1070.9 ± 6.1
